Data taken from patent publication US8933224B2, “Triazine derivatives” (Pfizer Inc., priority 2013, dated 2015).

Assays:
rat PDE10 enzyme = rat PDE10 enzyme (Rattus norvegicus (Rat), UniProt Q9QYJ6); experiment: PDE10 scintillation proximity assay (SPA), inhibition of rat PDE10 enzyme activity; type: biochemical; settings: geometric mean of 2-4 determinations unless otherwise indicated (b: ≧5 determinations; c: single determination)
Method in brief: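 SPA with fixed recombinant PDE10 (Sf21-expressed, Ni-NTA and Mono Q purified) converting ~20% of 20 nM ³H-cAMP in 50 mM TRIS pH 7.5, 1.3 mM MgCl2, 0.01% Brij, across an inhibitor range.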

[1] = target: human recombinant PDE10 enzyme (PDE10A) (Homo sapiens, UniProt Q9Y233); experiment: PDE10 scintillation proximity assay (SPA), inhibition of human recombinant PDE10 enzyme activity; type: biochemical; settings: geometric mean of 2-4 determinations unless otherwise indicated (b: ≧5 determinations; c: single determination)
Method in brief: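 His6-tagged human PDE10A (aa 21–797) was expressed in insect cells and purified by Ni-NTA and size exclusion. The enzyme, at a level converting about 20% of 20 nM ^3H-cAMP, was incubated 30 min at 25°C in 50 mM Tris pH 7.5, 1.3 mM MgCl2, 0.01% Brij with inhibitors. The reaction was stopped with yttrium silicate SPA beads, read by scintillation, and IC50 determined.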

rat PDE10 enzyme, sequence (Q9QYJ6 24-794): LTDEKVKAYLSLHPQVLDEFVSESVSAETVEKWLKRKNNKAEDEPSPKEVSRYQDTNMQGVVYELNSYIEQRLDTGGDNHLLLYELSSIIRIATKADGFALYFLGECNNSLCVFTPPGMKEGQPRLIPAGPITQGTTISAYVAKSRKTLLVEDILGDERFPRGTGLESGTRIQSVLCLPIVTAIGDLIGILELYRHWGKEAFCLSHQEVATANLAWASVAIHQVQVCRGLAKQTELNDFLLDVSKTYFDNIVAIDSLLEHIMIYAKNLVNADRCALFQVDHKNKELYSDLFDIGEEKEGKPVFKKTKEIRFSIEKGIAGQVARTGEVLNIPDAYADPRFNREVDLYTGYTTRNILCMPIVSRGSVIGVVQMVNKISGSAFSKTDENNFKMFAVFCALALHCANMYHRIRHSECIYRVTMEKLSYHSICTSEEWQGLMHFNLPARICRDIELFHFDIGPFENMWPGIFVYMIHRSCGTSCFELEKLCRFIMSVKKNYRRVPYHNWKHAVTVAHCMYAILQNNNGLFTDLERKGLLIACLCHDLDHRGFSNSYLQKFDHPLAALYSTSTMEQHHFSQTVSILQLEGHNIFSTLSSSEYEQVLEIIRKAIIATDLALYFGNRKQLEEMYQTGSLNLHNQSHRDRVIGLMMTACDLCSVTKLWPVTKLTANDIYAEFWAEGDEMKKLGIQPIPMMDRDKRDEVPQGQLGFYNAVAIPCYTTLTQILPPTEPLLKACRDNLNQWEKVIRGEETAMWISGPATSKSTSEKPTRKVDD

IC50 (rat PDE10 enzyme) [nM]	IC50 [1] [nM]	Structure (SMILES)
3.09	4.55	Cc1nc(-c2ccccc2F)c2c(N3CCc4nc(C5CC5)nc(C(F)(F)F)c4C3)ncnn12 [Example 90, 2-cyclopropyl-6-[5-(2-fluorophenyl)-7-methylimidazo[5,1-f][1,2,4]triazin-4-yl]-4-(trifluoromethyl)-5,6,7,8-tetrahydropyrido[4,3-d]pyrimidine]
0.793	0.61	Cc1nc([C@@H]2CCOC2)c2c(N3CCc4cnn(C(C)C)c4C3)ncnn12 [Example 91]
0.997	0.664	Cc1nc(-c2ccccc2F)c2c(N3CCc4cnn(C(C)C)c4C3)ncnn12 [Example 92, 5-(2-fluorophenyl)-7-methyl-4-[1-(propan-2-yl)-1,4,5,7-tetrahydro-6H-pyrazolo[3,4-c]pyridin-6-yl]imidazo[5,1-f][1,2,4]triazine]
10.1	8.82	Cc1nc(C2CCOCC2)c2c(N3CCc4ncccc4C3)ncnn12 [Example 95, 6[7-methyl-5-(tetrahydro-2H-pyran-4-yl)imidazo[5,1-f][1,2,4]triazin-4-yl]-5,6,7,8-tetrahydro-1,6-naphthyridine]
5.2	4.8	Cc1nc([C@H]2CCOC2)c2c(N3CCc4ncccc4C3)ncnn12 [Example 96, 6-{7-methyl-5-[(3R)-tetrahydrofuran-3-yl]imidazo[5,1-f][1,2,4]triazin-4-yl}-5,6,7,8-tetrahydro-1,6-naphthyridine]
6.85	18.6	Cc1ncc2c(n1)CCN(c1ncnn3c(C)nc(-c4ccccc4F)c13)C2 [Example 111, 6-[5-(2-fluorophenyl)-7-methylimidazo[5,1-f][1,2,4]triazin-4-yl]-2-methyl-5,6,7,8-tetrahydropyrido[4,3-d]pyrimidine]
0.943	1.28	Cc1nc(-c2ccccc2F)c2c(N3CCc4c(c(C(F)(F)F)nn4C)C3)ncnn12 [Example 118, 5-(2-fluorophenyl)-7-methyl-4-[1-methyl-3-(trifluoromethyl)-1,4,6,7-tetrahydro-5H-pyrazolo[4,3-c]pyridin-5-yl]imidazo[5,1-f][1,2,4]triazine]
1.65	2.34	Cc1nc(C)c2c(n1)CCN(c1ncnn3c(C)nc(-c4ccccc4F)c13)C2 [Example 130, 6-[5-(2-fluorophenyl)-7-methylimidazo[5,1-f][1,2,4]triazin-4-yl]-2,4-dimethyl-5,6,7,8-tetrahydropyrido[4,3-d]pyrimidine]
0.456	0.573	CCc1nc(C)nc2c1CN(c1ncnn3c(C)nc(-c4ccccc4F)c13)CC2 [Example 131, 4-ethyl-6-[5-(2-fluorophenyl)-7-methylimidazo[5,1-f][1,2,4]triazin-4-yl]-2-methyl-5,6,7,8-tetrahydropyrido[4,3-d]pyrimidine]
0.37	0.625	CCc1nc(C)nc2c1CN(c1ncnn3c(C)nc([C@@H]4CCOC4)c13)CC2 [Example 133, 4-ethyl-2-methyl-6-{7-methyl-5-[(3S)-tetrahydrofuran-3-yl]imidazo[5,1-f][1,2,4]triazin-4-yl}-5,6,7,8-tetrahydropyrido[4,3-d]pyrimidine]
2.44	4.51	Cc1ncc2c(n1)CCN(c1ncnn3c(C)nc([C@@H]4CCOC4)c13)C2 [Example 134, 2-methyl-6-{7-methyl-5-[(3S)-tetrahydrofuran-3-yl]imidazo[5,1-f][1,2,4]triazin-4-yl}-5,6,7,8-tetrahydropyrido[4,3-d]pyrimidine]
0.095	0.0777	CCc1nc(C2CC2)nc2c1CN(c1ncnn3c(C)nc([C@@H]4CCOC4)c13)CC2 [Example 137]
0.106	0.219	Cc1nc([C@@H]2CCOC2)c2c(N3CCc4nc(C5CC5)n(C)c(=O)c4C3)ncnn12 [Example 143, 2-cyclopropyl-3-methyl-6-{7-methyl-5-[(3S)-tetrahydrofuran-3-yl]imidazo[5,1-f][1,2,4]triazin-4-yl}-5,6,7,8-tetrahydropyrido[4,3-d]pyrimidin-4(3H)-one]
0.125	0.166	CCOc1nc(C2CC2)nc2c1CN(c1ncnn3c(C)nc([C@@H]4CCOC4)c13)CC2 [Example 148, 2-cyclopropyl-4-ethoxy-6-{7-methyl-5-[(3S)-tetrahydrofuran-3-yl]imidazo[5,1-f][1,2,4]triazin-4-yl}-5,6,7,8-tetrahydropyrido[4,3-d]pyrimidine]
< 0.13	0.333	CNc1ccc2c(n1)CCN(c1ncnn3c(C)nc([C@@H]4CCOC4)c13)C2 [Example 152, N-methyl-6-{7-methyl-5-[(3S)-tetrahydrofuran-3-yl]imidazo[5,1-f][1,2,4]triazin-4-yl}-5,6,7,8-tetrahydro-1,6-naphthyridin-2-amine]
0.905	1	Cc1nc(-c2ccccc2F)c2c(N3CCc4cnn(C5CC5)c4C3)ncnn12 [Example 156, 4-(1-cyclopropyl-1,4,5,7-tetrahydro-6H-pyrazolo[3,4-c]pyridin-6-yl)-5-(2-fluorophenyl)-7-methylimidazo[5,1-f][1,2,4]triazine]
0.196	0.295	Cc1nc([C@@H]2CCOC2)c2c(N3CCc4ccc(C(F)(F)F)nc4C3)ncnn12 [Example 157, 7-{7-methyl-5-[(3S)-tetrahydrofuran-3-yl]imidazo[5,1-f][1,2,4]triazin-4-yl}-2-(trifluoromethyl)-5,6,7,8-tetrahydro-1,7-naphthyridine]
9.7	21.2	Cc1nc(-c2ccccc2F)c2c(N3CCc4ccc(C(F)(F)F)nc4C3)ncnn12 [Example 159, 7-[5-(2-fluorophenyl)-7-methylimidazo[5,1-f][1,2,4]triazin-4-yl]-2-(trifluoromethyl)-5,6,7,8-tetrahydro-1,7-naphthyridine]
0.163	0.468	Cc1nc([C@@H]2CCOC2)c2c(N3CCc4cc(C5CC5)ncc4C3)ncnn12 [Example 161, 6-cyclopropyl-2-{7-methyl-5-[(3S)-tetrahydrofuran-3-yl]imidazo[5,1-f][1,2,4]triazin-4-yl}-1,2,3,4-tetrahydro-2,7-naphthyridine]
2.16	5.21	Cc1nc(-c2ccccc2F)c2c(N3CCc4cc(C5CC5)ncc4C3)ncnn12 [Example 162, 6-cyclopropyl-2-[5-(2-fluorophenyl)-7-methylimidazo[5,1-f][1,2,4]triazin-4-yl]-1,2,3,4-tetrahydro-2,7-naphthyridine]

Structure (SMILES)	IC50 (rat PDE10 enzyme) [nM]	IC50 [1] [nM]
Cc1ccc2c(n1)CCN(c1ncnn3c(C)nc([C@@H]4CCOC4)c13)C2 [Example 139, 2-methyl-6-{7-methyl-5-[(3S)-tetrahydrofuran-3-yl]imidazo[5,1-f][1,2,4]triazin-4-yl}-5,6,7,8-tetrahydro-1,6-naphthyridine]	0.27	0.279
Cc1cc2c(cn1)CN(c1ncnn3c(C)nc([C@@H]4CCOC4)c13)CC2 [Example 163, 6-methyl-2-{7-methyl-5-[(3S)-tetrahydrofuran-3-yl]imidazo[5,1-f][1,2,4]triazin-4-yl}-1,2,3,4-tetrahydro-2,7-naphthyridine]	1.19	1.78
Cc1cc2c(cn1)CN(c1ncnn3c(C)nc(-c4ccccc4F)c13)CC2 [Example 164, 2-[5-(2-fluorophenyl)-7-methylimidazo[5,1-f][1,2,4]triazin-4-yl]-6-methyl-1,2,3,4-tetrahydro-2,7-naphthyridine]	3.32	5.92
